Assay results reported in patent US12157741B2, “Macrocyclic inhibitors of DYRK1A” (DANA-FARBER CANCER INSTITUTE, INC., priority 2018, dated 2024).
Like-named read-outs stand apart in the source and are kept apart here.

Experiments:
Type in all cases: binding
[1] = target: various enzymes (Homo sapiens, UniProt P42336, E542K)
Protocol: (§1) Ambit profiling was conducted in accordance with the manufacturer's instructions.

[2] = target: various enzymes (Homo sapiens, UniProt Q9UKI8); settings: compound 1 uM
Protocol: as §1

[3] = target: various enzymes (Homo sapiens, UniProt O00750); settings: compound 1 uM
Protocol: as §1

[4] = target: various enzymes (Homo sapiens, UniProt Q56UN5); settings: compound 1 uM
Protocol: as §1

[5] = target: various enzymes (Homo sapiens, UniProt Q14164); settings: compound 1 uM
Protocol: as §1

[6] = target: various enzymes (Homo sapiens, UniProt Q9Y3S1); settings: compound 1 uM
Protocol: as §1

[7] = target: various enzymes (Homo sapiens, UniProt Q5S007); settings: compound 1 uM
Protocol: as §1

[8] = target: various enzymes (Homo sapiens, UniProt O95835); settings: compound 1 uM
Protocol: as §1

[9] = target: various enzymes (Homo sapiens, UniProt Q9P1W9); settings: compound 1 uM
Protocol: as §1

[10] = target: various enzymes (Homo sapiens, UniProt O43318); settings: compound 1 uM
Protocol: as §1

[11] = target: various enzymes (Homo sapiens, UniProt Q2M2I8); settings: compound 1 uM
Protocol: as §1

[12] = target: various enzymes (Homo sapiens, UniProt P41743); settings: compound 1 uM
Protocol: as §1

[13] = target: various enzymes (Homo sapiens, UniProt P19525); settings: compound 1 uM
Protocol: as §1

[14] = target: various enzymes (Homo sapiens, UniProt O75676); settings: compound 1 uM
Protocol: as §1

[15] = target: various enzymes (Homo sapiens, UniProt Q96Q40); settings: compound 1 uM
Protocol: as §1

[16] = target: T1, various enzymes (Homo sapiens, UniProt P36888); settings: compound 1 uM
T1 sequence (P36888 27-993): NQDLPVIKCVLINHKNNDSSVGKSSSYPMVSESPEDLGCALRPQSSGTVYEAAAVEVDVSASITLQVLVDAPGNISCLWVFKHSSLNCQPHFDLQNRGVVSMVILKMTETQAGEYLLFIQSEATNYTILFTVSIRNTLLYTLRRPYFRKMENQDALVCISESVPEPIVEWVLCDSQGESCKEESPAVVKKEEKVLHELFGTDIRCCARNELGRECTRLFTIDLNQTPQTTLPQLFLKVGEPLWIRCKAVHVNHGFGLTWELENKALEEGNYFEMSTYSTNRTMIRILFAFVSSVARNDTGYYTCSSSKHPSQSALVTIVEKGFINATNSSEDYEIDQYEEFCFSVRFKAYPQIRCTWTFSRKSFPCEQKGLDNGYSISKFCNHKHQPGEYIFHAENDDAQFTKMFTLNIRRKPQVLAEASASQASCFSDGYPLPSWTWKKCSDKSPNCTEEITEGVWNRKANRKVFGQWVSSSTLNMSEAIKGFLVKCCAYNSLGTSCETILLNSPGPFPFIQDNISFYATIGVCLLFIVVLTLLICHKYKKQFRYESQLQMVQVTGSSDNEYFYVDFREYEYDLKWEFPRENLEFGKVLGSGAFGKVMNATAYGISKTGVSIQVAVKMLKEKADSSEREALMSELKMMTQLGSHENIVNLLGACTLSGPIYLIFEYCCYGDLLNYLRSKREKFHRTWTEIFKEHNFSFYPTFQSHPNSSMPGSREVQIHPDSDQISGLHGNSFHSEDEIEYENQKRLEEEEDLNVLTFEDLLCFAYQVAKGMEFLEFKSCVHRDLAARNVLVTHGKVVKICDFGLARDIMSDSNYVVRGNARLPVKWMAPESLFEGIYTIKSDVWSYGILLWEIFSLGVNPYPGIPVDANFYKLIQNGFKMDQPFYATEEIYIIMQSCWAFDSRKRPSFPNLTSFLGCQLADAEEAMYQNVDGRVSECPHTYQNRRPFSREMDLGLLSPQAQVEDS
Protocol: as §1

[17] = target: various enzymes (Homo sapiens, UniProt P36888, D835H)
Protocol: as §1

[18] = target: various enzymes (Homo sapiens, UniProt P49840); settings: compound 1 uM
Protocol: as §1

[19] = target: various enzymes (Homo sapiens, UniProt Q86YV6); settings: compound 1 uM
Protocol: as §1

[20] = target: various enzymes (Homo sapiens, UniProt P49336); settings: compound 1 uM
Protocol: as §1

[21] = target: various enzymes (Homo sapiens, UniProt P42336, H1047Y)
Protocol: as §1

[22] = target: various enzymes (Homo sapiens, UniProt Q9P2K8, S808G)
Protocol: as §1

[23] = target: various enzymes (Homo sapiens, UniProt Q9NYL2); settings: compound 1 uM
Protocol: as §1

[24] = target: various enzymes (Homo sapiens, UniProt Q8IW41); settings: compound 1 uM
Protocol: as §1

[25] = target: various enzymes (Homo sapiens, UniProt Q9BQI3); settings: compound 1 uM
Protocol: as §1

[26] = target: various enzymes (Homo sapiens, UniProt P00533, DEL752-759); settings: compound 1 uM
Protocol: as §1

[27] = target: various enzymes (Homo sapiens, UniProt Q86UE8); settings: compound 1 uM
Protocol: as §1

[28] = target: various enzymes (Homo sapiens, UniProt Q02763); settings: compound 1 uM
Protocol: as §1

[29] = target: various enzymes (Homo sapiens, UniProt Q9Y2I7); settings: compound 1 uM
Protocol: as §1

[30] = target: various enzymes (Homo sapiens, UniProt Q13164); settings: compound 1 uM
Protocol: as §1

[31] = target: various enzymes (Homo sapiens, UniProt Q6DT37); settings: compound 1 uM
Protocol: as §1

various enzymes (Homo sapiens, UniProt O75676), sequence (O75676 whole entry): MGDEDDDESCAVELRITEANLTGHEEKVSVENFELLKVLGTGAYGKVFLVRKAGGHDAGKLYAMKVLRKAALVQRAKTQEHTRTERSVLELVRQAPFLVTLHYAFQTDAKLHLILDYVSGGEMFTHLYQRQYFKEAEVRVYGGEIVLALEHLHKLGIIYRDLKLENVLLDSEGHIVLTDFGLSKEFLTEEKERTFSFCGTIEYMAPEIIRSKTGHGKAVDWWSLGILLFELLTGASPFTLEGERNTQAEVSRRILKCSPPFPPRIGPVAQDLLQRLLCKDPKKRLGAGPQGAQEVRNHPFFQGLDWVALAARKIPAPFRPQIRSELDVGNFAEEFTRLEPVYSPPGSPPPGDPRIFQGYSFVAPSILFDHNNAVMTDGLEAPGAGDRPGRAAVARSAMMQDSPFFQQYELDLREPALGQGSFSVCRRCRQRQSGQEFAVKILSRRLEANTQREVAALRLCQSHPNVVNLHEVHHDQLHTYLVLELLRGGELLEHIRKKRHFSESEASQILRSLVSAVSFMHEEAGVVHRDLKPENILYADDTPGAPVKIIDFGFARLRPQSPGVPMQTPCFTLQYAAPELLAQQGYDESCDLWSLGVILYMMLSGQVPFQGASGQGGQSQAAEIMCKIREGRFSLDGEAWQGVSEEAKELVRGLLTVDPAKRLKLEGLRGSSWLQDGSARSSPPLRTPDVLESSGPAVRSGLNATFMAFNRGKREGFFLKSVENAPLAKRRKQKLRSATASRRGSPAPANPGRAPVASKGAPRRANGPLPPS
various enzymes (Homo sapiens, UniProt Q56UN5), sequence (Q56UN5 whole entry): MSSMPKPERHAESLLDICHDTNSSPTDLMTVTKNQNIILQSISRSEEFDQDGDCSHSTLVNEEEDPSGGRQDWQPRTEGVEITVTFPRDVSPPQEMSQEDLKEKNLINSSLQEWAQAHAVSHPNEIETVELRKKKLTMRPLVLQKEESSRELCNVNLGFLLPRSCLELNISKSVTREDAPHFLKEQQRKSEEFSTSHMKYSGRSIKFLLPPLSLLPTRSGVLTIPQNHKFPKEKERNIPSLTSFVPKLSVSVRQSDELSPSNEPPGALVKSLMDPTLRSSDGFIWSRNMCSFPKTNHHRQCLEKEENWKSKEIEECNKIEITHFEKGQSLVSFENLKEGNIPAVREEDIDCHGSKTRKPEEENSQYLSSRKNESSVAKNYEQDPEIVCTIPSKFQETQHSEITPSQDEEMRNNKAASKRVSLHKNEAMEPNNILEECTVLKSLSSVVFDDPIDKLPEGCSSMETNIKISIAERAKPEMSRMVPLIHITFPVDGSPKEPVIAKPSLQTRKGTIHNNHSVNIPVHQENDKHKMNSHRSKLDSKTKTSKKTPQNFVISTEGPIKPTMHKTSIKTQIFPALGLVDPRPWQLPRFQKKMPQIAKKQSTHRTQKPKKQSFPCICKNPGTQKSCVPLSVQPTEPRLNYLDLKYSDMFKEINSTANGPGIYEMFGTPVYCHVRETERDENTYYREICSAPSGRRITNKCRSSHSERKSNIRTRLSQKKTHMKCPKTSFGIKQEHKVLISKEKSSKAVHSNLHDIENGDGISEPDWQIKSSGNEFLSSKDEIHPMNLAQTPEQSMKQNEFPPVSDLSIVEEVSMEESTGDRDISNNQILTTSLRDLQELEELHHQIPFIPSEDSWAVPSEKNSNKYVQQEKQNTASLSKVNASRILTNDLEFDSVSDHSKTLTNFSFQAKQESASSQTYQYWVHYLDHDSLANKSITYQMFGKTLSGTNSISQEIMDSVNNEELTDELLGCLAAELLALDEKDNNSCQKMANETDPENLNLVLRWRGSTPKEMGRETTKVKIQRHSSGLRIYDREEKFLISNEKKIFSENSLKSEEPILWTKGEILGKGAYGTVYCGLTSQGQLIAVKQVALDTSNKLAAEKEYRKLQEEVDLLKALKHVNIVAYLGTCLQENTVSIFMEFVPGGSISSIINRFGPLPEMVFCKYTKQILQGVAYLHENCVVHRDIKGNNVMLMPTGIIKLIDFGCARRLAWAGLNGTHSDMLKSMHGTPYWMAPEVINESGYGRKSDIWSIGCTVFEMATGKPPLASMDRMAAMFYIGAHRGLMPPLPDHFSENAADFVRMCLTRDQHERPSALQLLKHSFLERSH
various enzymes (Homo sapiens, UniProt Q5S007), sequence (Q5S007 whole entry): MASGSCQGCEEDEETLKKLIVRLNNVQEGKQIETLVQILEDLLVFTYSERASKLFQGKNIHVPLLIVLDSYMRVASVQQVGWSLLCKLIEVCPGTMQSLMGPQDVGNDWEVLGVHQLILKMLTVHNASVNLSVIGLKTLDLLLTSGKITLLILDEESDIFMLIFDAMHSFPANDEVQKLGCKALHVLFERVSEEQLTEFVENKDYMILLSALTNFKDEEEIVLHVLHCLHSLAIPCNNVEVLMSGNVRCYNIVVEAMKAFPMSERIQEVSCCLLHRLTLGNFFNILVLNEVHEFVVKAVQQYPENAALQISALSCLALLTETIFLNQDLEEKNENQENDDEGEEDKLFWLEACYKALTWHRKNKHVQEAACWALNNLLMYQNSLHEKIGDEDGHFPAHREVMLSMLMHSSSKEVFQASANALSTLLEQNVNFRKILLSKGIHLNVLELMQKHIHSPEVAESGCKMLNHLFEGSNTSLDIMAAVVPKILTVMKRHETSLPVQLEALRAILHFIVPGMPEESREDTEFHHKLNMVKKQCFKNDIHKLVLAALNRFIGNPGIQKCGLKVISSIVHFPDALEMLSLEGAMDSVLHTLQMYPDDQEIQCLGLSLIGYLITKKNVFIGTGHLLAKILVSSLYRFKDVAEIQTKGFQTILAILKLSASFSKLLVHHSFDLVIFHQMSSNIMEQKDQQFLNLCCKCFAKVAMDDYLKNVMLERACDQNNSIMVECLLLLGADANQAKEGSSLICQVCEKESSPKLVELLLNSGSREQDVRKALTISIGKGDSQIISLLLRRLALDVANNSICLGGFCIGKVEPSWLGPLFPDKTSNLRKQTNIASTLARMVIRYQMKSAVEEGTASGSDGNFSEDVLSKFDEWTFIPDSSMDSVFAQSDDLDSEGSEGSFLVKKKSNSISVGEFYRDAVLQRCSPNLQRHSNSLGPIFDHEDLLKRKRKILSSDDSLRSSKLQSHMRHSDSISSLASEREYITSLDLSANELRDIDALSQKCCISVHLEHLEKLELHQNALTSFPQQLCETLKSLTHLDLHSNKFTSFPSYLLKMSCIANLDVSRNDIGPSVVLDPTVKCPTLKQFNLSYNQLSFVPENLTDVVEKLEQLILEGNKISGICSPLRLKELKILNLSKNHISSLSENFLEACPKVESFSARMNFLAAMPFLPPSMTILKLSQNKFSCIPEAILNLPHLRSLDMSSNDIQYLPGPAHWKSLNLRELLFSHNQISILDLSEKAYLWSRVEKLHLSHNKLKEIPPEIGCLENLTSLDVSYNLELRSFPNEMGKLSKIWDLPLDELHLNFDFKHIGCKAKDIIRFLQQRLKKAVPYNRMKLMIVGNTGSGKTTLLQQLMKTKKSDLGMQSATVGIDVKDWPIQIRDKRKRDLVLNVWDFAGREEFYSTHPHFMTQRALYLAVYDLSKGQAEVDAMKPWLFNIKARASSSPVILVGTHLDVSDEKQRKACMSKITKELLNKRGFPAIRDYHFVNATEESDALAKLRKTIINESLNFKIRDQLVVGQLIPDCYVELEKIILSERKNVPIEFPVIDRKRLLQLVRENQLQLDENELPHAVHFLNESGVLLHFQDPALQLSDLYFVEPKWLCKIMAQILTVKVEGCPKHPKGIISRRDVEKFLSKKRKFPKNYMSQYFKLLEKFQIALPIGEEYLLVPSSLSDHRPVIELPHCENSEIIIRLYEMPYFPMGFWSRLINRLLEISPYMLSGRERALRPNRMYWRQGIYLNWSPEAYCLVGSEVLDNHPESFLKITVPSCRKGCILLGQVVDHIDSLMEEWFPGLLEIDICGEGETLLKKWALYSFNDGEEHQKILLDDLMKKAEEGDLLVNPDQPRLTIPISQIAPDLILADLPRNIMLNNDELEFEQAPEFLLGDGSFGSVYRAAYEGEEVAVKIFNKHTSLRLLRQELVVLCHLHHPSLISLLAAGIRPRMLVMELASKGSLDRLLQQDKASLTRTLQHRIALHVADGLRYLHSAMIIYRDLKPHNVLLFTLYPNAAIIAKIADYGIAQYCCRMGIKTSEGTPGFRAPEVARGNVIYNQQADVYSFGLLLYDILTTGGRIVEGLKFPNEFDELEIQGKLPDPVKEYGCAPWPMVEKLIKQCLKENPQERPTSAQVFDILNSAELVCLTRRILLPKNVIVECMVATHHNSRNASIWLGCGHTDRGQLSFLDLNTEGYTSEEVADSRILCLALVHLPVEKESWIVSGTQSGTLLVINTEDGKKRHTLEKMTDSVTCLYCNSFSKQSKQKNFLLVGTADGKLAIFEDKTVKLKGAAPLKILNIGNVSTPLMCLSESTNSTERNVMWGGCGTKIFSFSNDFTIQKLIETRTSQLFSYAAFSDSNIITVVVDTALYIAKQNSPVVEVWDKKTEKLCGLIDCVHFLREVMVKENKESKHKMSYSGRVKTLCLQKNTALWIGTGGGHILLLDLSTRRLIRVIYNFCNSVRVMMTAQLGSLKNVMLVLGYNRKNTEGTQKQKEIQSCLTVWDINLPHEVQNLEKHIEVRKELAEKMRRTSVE
various enzymes (Homo sapiens, UniProt Q9P1W9), sequence (Q9P1W9 whole entry): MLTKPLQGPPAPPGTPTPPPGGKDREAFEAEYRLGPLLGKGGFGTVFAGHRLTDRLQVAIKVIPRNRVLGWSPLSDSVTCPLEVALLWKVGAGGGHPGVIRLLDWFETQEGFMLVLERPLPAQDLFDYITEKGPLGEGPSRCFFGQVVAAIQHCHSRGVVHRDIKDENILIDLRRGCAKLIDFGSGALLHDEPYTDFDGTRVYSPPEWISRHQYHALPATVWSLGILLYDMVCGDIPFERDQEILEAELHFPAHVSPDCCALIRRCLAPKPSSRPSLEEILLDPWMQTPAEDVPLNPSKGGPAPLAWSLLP

| SMILES | Ambit profiling: TLK1 [2] | Ambit profiling: PIK3C2B [3] | Ambit profiling: YSK4 [4] | Ambit profiling: IKK-epsilon [5] | Ambit profiling: WNK2 [6] | Ambit profiling: LRRK2 [7] | Ambit profiling: LATS1 [8] | Ambit profiling: PIM2 [9] | Ambit profiling: TAK1 [10] | Ambit profiling: AAK1 [11] | Ambit profiling: PRKCI [12] | Ambit profiling: PRKR [13] | Ambit profiling: RPS6KA4(Kin.Dom.1-N-terminal) [14] | Ambit profiling: RPS6KA4(Kin.Dom.2-C-terminal) [14] | Ambit profiling: PFTAIRE2 [15] | Ambit profiling: FLT3 [16] | Ambit profiling: FLT3-autoinhibited [16] | Ambit profiling: GSK3A [18] | Ambit profiling: MYLK4 [19] | Ambit profiling: CDK8 [20] | further results |
| --- | --- | --- | --- | --- | --- | --- | --- | --- | --- | --- | --- | --- | --- | --- | --- | --- | --- | --- | --- | --- | --- |
| CC(C)N1Cc2nn(C)cc2-c2cnc3[nH]cc(c3c2)-c2cn(nc2C(F)(F)F)CCCC1=O [Compound 45, (Z)-5-isopropyl-31-methyl-13-(trifluoromethyl)-11H,21H,31H-5-aza-2(3,5)-pyrrolo[2,3-b]pyridina-1(4,1),3(4,3)-dipyrazolacyclononaphan-6-one] | 55 | 92 | 17 | 40 | 64 | 44 | 100 | 100 | 4.1 | 40 | 9.1 | 71 | 98 | 100 | 39 | 0 | 21 | 17 | 100 | 100 | Ambit profiling: PIK3CA(E542K) ([1]; compound 1 uM): 98; Ambit profiling: FLT3(D835H) ([17]; compound 1 uM): 1.6; Ambit profiling: PIK3CA(H1047Y) ([21]; compound 1 uM): 84; Ambit profiling: GCN2(Kin.Dom.2, S808G) ([22]; compound 1 uM): 100; Ambit profiling: ZAK [23]: 45; Ambit profiling: MAPKAPK5 [24]: 100; Ambit profiling: EIF2AK1 [25]: 100; Ambit profiling: EGFR(S752-I759del) [26]: 66; Ambit profiling: TLK2 [27]: 86; Ambit profiling: TIE2 [28]: 6.7; Ambit profiling: PIKFYVE [29]: 13; Ambit profiling: ERK5 [30]: 100; Ambit profiling: DMPK2 [31]: 53 |
| COc1c2c(nn1C)CN(C(C)C)C(=O)CCCn1cc(c(C(F)(F)F)n1)-c1c[nH]c3ncc-2cc13 [Compound 50, (Z)-5-isopropyl-35-methoxy-31-methyl-13-(trifluoromethyl)-11H,21H,31H-5-aza-2(3,5)-pyrrolo[2,3-b]pyridina-1(4,1),3(4,3)-dipyrazolacyclononaphan-6-one] | 58 | 100 | 0.1 | 19 | 46 | 50 | 72 | 100 | 9.1 | 43 | 42 | 84 | 62 | 100 | 60 | 1.1 | 6.4 | 93 | 77 | 67 | Ambit profiling: PIK3CA(E542K) [1]: 85; Ambit profiling: FLT3(D835H) [17]: 2.8; Ambit profiling: PIK3CA(H1047Y) [21]: 100; Ambit profiling: GCN2(Kin.Dom.2, S808G) [22]: 100; Ambit profiling: ZAK [23]: 58; Ambit profiling: MAPKAPK5 [24]: 100; Ambit profiling: EIF2AK1 [25]: 66; Ambit profiling: EGFR(S752-I759del) [26]: 48; Ambit profiling: TLK2 [27]: 91; Ambit profiling: TIE2 [28]: 2.7; Ambit profiling: PIKFYVE [29]: 11; Ambit profiling: ERK5 [30]: 70; Ambit profiling: DMPK2 [31]: 47 |
